Values of other authors in patent US20150338392A1, “Sterile and instantly dissolvable drug membrane and method thereof for testing drug sensitivity of antineoplastic drugs” (priority 2013, published 2015).

What was measured:
[1] = system: invasive breast cancer; settings: clinical, background statement
[2] = system: non-small cell lung cancer; settings: clinical, background statement

Structure (SMILES) | invasive breast cancer patients who are not sensitive to the drug [1] | patients who receive no obvious effect [2]
COc1cccc2c1C(=O)c1c(O)c3c(c(O)c1C2=O)C[C@@](O)(C(=O)CO)C[C@@H]3O[C@H]1C[C@H](N)[C@H](O)[C@H](C)O1 [doxorubicin] | 50% | 
Nc1ccn([C@@H]2O[C@H](CO)[C@@H](O)C2(F)F)c(=O)n1 [Gemzar] |  | more than 60%
